# Columns and labels:
# [1] = system: Porcine smooth muscle cells (PSMC); test: Mitogenic assay on PSMC (cell count); format: cell-based; details: for inhibition of PSMC proliferation mediated by FBS: 17βE 10^−7M, 72 h
# Protocol: (§1) Confluent PAEC and PSMC were rinsed with DMEM and trypsinized. Cells were resuspended in 10 ml of DMEM, 5% FBS, and antibiotics, and a cell count was obtained with a Coulter Counter Z1 (Coulter Electronics, Luton, UK). PAEC and PSMC were seeded at 1×10^4 cells/well of 24-well tissue culture plates (Becton-Dickinson, Rutherford, N.J., U.S.A.) stimulated for 24 h in DMEM, 5% FBS, and antibiotics, and starved for 48 h in DMEM, 0.1% FBS, and antibiotics. […] After trypsinization, cell number was determined by using a Coulter counter.
# (§2) Confluent PAEC and PSMC were rinsed with DMEM and trypsinized. Cells were resuspended in 10 mL of DMEM, 5% FBS, and antibiotics, and a cell count was obtained. PAEC and PSMC were initially seeded at 1×10^4cells/well of 24-well tissue culture plates stimulated for 24 hours in DMEM, 5% FBS, and antibiotics with or without antisense oligomers (10^−6 mol/L), and starved for 48 hours in DMEM, 0.1% FBS, and antibiotics with or without antisense oligomers (10^−6 mol/L daily) for G0 synchronization. Initial cell number for growth was determined using a Coulter counter. The cells were stimulated for 72 hours in DMEM, 1% FBS, antibiotics with or without antisense oligomers (10^−6 mol/L daily) and with or without of 17βE (Sigma). After trypsinization, cell number was determined by using a Coulter counter.
# [2] = system: Porcine aortic endothelial cells (PAEC); test: Mitogenic assay on PAEC (cell count); format: cell-based; details: for inhibition of the 17βE mitogenic activity in PAEC: antagonist 10^−7M pretreatment
# Protocol: as §1, §2
# p38 MAPK = test: Western blot of p38 MAPK phosphorylation in PAEC; format: cell-based, porcine; details: for inhibition of p38 MAPK phosphorylation induced by a 30 minutes treatment with 17βE: antagonist 10^−7M 5 min prior to 17βE 10^−8M
# Protocol: Confluent PAEC and PSMC were starved for 7 hours in DMEM and antibiotics. Culture medium was removed, and cells were rinsed twice with ice-cold DMEM. PSMC were incubated on ice in DMEM with or without 17βE (10^−8M) for 30 min, incubated at 37° C. for 5, 10, 15 and 30 min, then brought back on ice. Cell were then rinsed with cold DMEM, incubated on ice in DMEM, bovine serum albumin (1 mg/ml), PDGF-BB (10 ng/ml) for 30 min, incubated at 37° C. for 5 min, and then brought back on ice. PAEC were incubated on ice in DMEM with or without 17βE (10^−7M) for 30 min, then incubated at 37° C. for 5, 10, 15 and 30 min and brought back on ice. […] Total proteins were prepared by the addition of 500 μl of lysis buffer containing phenylmethylsulfonyl fluoride 1 mM, leupeptin 10 μg/ml, aprotinin 30 μg/ml, and NaVO3 1 mM (Sigma). Plates were incubated at 4° C. for 30 min and scraped, and the protein concentration was determined with a Bio-Rad protein kit (Bio-Rad, Hercules, Calif.). Same protein quantity for each cell type and condition were dissolved in Laemmli's buffer, boiled for 5 min in reducing conditions, separated by a 10% gradient SDS-PAGE (Protean II kit; Bio-Rad), and transblotted onto a 0.45-μm polyvinylidene difluoride membranes (Millipore Corp., Bedford, Mass.). The membranes were blocked in 5% Blotto-TTBS (5% nonfat dry milk; Bio-Rad), 0.05% Tween 20, 0.15 M NaCl, 25 mM Tris-HCl, pH 7.5) for 1 h at room temperature with gentle agitation and incubated overnight at 4° C. in 0.5% Blotto-TTBS with the addition of an anti-phospho p42/44 MAPK or an anti-phospho p38 MAPK rabbit polyclonal antiserums (α-pp42/44; dilution of 1:10 000, and α-pp38; dilution 1:5000, New England BioLabs, Beverly, Mass.). Membranes were washed with TTBS, and incubated at room temperature with an anti-rabbit IgG antibody coupled to horseradish peroxidase (dilution 1:10 000–1:20 000, Santa Cruz Biotechnology, Santa Cruz, Calif.) in 0.5% Blotto-TTBS for 30 min. […] Kaleidoscope molecular weight and SDS-plyacrylamide gel electrophoresis broad range marker proteins (Bio-Rad) were used as standards for SDS-plyacrylamide gel electrophoresis. Digital image densitometry (PDI Bioscience, Aurora, ON) was performed on x-ray film to determine relative percentages of p42/44 and p38 MAPK phosphorylation.
# Confluent PAEC and PSMC were preteated with or without antisense sequences as described above for Western Blot analysis. Cells were rinsed twice with ice-cold DMEM. PSMC and PAEC were stimulated with or without 17βE (10^−8 mol/L) as previously described (Geraldes P). Briefly, PSMC were incubated on ice in DMEM with or without 17βE (10^−8 mol/L) for 30 minutes, incubated at 37° C. for 30 minutes, then brought back on ice. Cells were then rinsed with cold DMEM, incubated on ice in DMEM, bovine serum albumin (1 mg/mL), PDGF-BB (10 ng/mL) for 30 minutes, incubated at 37° C. for 5 and 30 minutes, and then brought back on ice. PAEC were incubated on ice in DMEM with or without 17βE (10^−8 mol/L) for 30 minutes, then incubated at 37° C. for 5 and 30 minutes and brought back on ice. Total proteins were prepared-by the addition of 500 μL of lysis buffer, incubated at 4° C. for 30 minutes and scraped to collect the proteins. Same quantity of protein was separated by a 10% gradient SDS-PAGE (Protean II kit; Bio-Rad), and transblotted onto a 0.45-μm polyvinylidene difluoride membranes (Millipore Corp.). […]
smiles,measurement,setting,value
"C[C@]12CC[C@@H]3c4ccc(O)cc4CC[C@H]3[C@@H]1CC[C@@H]2O [17βE, 17-beta-estradiol]",inhibition of PSMC proliferation mediated by FBS,[1]; FBS 1%,88%
same,inhibition of PSMC proliferation mediated by FBS,[1]; FBS 5%,90%
same,inhibition of FBS 1% mitogenic activity on PSMC,"[1]; 17βE 10^−8M, Example 1",inhibited completely
same,prevention of PSMC proliferation mediated by FBS 1%,"[1]; 17βE 10^−8 mol/L, Example 2",95%
same,induction of PAEC proliferation over FBS 1% treatment,"[2]; 17βE 10^−8M, 72 h, Example 1",37%
same,induction of PAEC proliferation over FBS 1% treatment,"[2]; 17βE 10^−8 mol/L, Example 2",123%
same,concentration of maximum induction of PAEC proliferation,"[2]; 17βE 10^−10 to 10^−7M, DMEM 1% FBS, data not shown",10^−8 M
same,time of maximum stimulation of p38 MAPK phosphorylation,p38 MAPK; 17βE 10^−8M,30 min
same,increase of p38 MAPK phosphorylation,"p38 MAPK; 17βE 10^−8 mol/L, 30 minutes, Example 2",254%
"O=C(c1ccc(OCN2CCCCC2)cc1)c1c(-c2ccc(O)cc2)sc2cc(O)ccc12 [Ral, Raloxifen]",reversal of the anti-mitogenic activity of 17βE on PSMC,"[1]; Rai 10^−1M as printed, 17βE 10^−8M, FBS 1%",100%
same,inhibition of the 17βE mitogenic activity in PAEC,[2]; 17βE 10^−8M,inhibited completely
same,inhibition of p38 MAPK phosphorylation induced by a 30 minutes treatment with 17βE,p38 MAPK,98%
"CC/C(=C(\c1ccccc1)c1ccc(OCCN(C)C)cc1)c1ccccc1 [Tam, Tamoxifen]",reversal of the anti-mitogenic activity of 17βE on PSMC,"[1]; Tam 10^−7M, 17βE 10^−8M, FBS 1%",75%
same,inhibition of the 17βE mitogenic activity in PAEC,[2]; 17βE 10^−8M,inhibited completely
same,inhibition of p38 MAPK phosphorylation induced by a 30 minutes treatment with 17βE,p38 MAPK,84%
"CC/C(=C(\c1ccc(O)cc1)c1ccc(OCCN(C)C)cc1)c1ccccc1 [4-OHT, 4-OH-Tamoxifen]",reversal of the anti-mitogenic activity of 17βE on PSMC,"[1]; 4-OHT 10^−8M and 10^−7M, 17βE 10^−8M, FBS 1%",81%
same,inhibition of the 17βE mitogenic activity in PAEC,[2]; 17βE 10^−8M,inhibited completely
same,inhibition of p38 MAPK phosphorylation induced by a 30 minutes treatment with 17βE,p38 MAPK,81%

# Source: US7235534B2, “Antisense strategy to modulate estrogen receptor response (ER α and/or ER β )” (Institut de Cardiologie de Montreal, priority 2001, dated 2007)
